From publication PMC6173696, “Structural properties of a haemophore facilitate targeted elimination of the pathogen Porphyromonas gingivalis” (Nature Communications, 2018)

Columns and labels:
[1] = molecular target: T1, HusA (Porphyromonas gingivalis, UniProt Q7MSY3); experiment: Tryptophan fluorescence quenching assay, HusA wild-type; type: binding; conditions: HusA wild-type 1 µM, fit to 1:1 binding model; read-out: Kd
T1 sequence (Q7MSY3 24-218): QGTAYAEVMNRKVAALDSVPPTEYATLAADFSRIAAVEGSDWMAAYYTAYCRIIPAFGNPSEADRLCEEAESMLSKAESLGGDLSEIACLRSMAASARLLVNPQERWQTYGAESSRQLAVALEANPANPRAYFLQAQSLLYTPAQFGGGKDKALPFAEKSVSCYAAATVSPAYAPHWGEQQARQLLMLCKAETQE
Experimental: The quenching of intrinsic tryptophan fluorescence of HusA upon porphyrin additions was measured using a Carey Eclipse Fluorescence Spectrophotometer (Agilent) set to a photo multiplier effect (PME) of 850. A 5-mm path length quartz cuvette was used and all spectra were acquired at room temperature. Excitation was set to 295 nm and emission was measured from 300 nm to 500 nm using excitation/emission slit widths of 5 nm. Binding assays were performed at a protein concentration of 1 μM HusA in standard buffer at a working volume of 0.5 mL. […] The fluorescence quenching of HusA by PPIX was investigated in a similar manner with the following difference: the fluorescence intensities of ten 1 μM HusA samples were measured each with increasing amounts of PPIX after a 2-h incubation period to allow equilibrium to be reached. See Supplementary Methods for correction for inner filter effect and curve fitting. […]
Correction of inner filter effect and curve fitting in tryptophan fluorescence quenching assays The concentration of NATA was chosen such that the raw fluorescence intensity was similar to the […] concentrations of HusA and mutants used. The same molarity titrants of porphyrin were titrated into NATA as were added into HusA in the control reactions. Fluorescence intensity was scaled with respect to the starting florescence and corrected for the inner filter effect. Fluorescence at 335 nm was used to fit binding curves.
The correction method is based on Fonin AV., et al.26, noting that a Cary Eclipse spectrofluorimeter […]
performed to measure the contribution to the decrease in fluorescence due to the inner filter effect and this effect was scaled to the starting fluorescence values as fractional changes. The measured fluorescence at each titration point for each of the porphyrin titrations into protein was then adjusted for this contribution. Fluorescence at 335 nm was used to fit binding curves. Association constant, Ka, was fitted using the following equation in Origin, assuming a single binding site. A dissociation constant, Kd, was calculated by taking the inverse of the Ka.
Xobs = XA×f A+XAB×f AB (1) where XA is the corrected fluorescence, fA=1-fAB, fAB=x/(Bt), x=(-b-sqrt(b2-4×c))/2, b=-(1/Ka+At+Bt), c=Bt×At, Bt=total concentration of protein, At=total concentration of ligand.
To aid comparison of the different titrations, the corrected fluorescence was scaled to the starting fluorescence in the absence of porphyrins (i.e. all fluorescence curves have a starting value of one

[2] = test system: P. gingivalis wild-type W83; experiment: Checkerboard / broth micro-dilution assay (MIC, MBC), wild-type W83; type: cell-based, Porphyromonas gingivalis; conditions: Porphyromonas gingivalis; planktonic W83, 24 h, anaerobic; read-out: minimal inhibitory concentration
Text: Fig. 5 A prototype DPIX-conjugated antibiotic binds HusA and inhibits P. gingivalis. a The chemical structure of the deuteroporphyrin-lysine-metronidazole adduct, P8. b NMR signal intensity changes (black) and ^1H^N CSPs (red/green) for HusA upon addition of P8 (measured from ^15N-HSQC spectra shown in Supplementary Figure 21). c In silico docking of P8 to the energy minimized structure of HusA (conformer set 1), with residues experiencing NMR signal loss (orange) or CSPs (red/green) mapped to the structure (colouring as described in Fig. 2d). d Scaled and corrected fluorescence at 335 nm during titration of 1 μM of HusA with increasing concentrations of P8, haemin or DPIX. e Comparison of P8 inhibitory effect towards P. gingivalis wild-type W83 and husA mutants using checkerboard analysis. Serial dilutions of antibiotics (horizontal axis) were applied to a 96-well plate with different P. gingivalis strains (vertical axis). Serial dilutions of DPIX were also supplemented into wild-type W83 group to evaluate the competitive effect against P8. Absorption at OD600 of each well was recorded after 24 h of incubation. The OD600 of each strain grown in the absence of antibiotics was defined as 100% growth, which was applied to normalise the reading collected from other wells. The normalised percentage of each well was plotted in the checkerboard. Metronidazole alone and in combination with PPIX or DPIX was applied as control. f Intracellular killing assay of P8 antibiotics. Gingival H413 epithelial cells were infected by P. gingivalis W83 and then treated with P8 at various concentrations. Recovered bacteria were determined by CFU count. Metronidazole and DMSO were used as control. Three independent experiments with triplicate assays were conducted. […]

[3] = test system: P. gingivalis wild-type W83; experiment: Checkerboard analysis of metronidazole with PPIX or DPIX, iron-replete and -limited; type: cell-based, Porphyromonas gingivalis; conditions: iron replete or iron-limited conditions
Experimental: Supplementary Figure 24. Comparison of metronidazole inhibitory effect towards P. gingivalis wild-type W83 in the presence of PPIX or DPIX under iron-replete and -limited conditions by checkerboard analysis. Serial dilutions of antibiotics along the horizontal axis were applied to a 96-well plate with P. gingivalis W83. Two pre-determined concentrations of PPIX or DPIX were supplemented to evaluate the synergistic effect between metronidazole and porphyrins. Dipyridyl (at 100 µM) was also applied to explore the potential effect under iron-replete and iron-depleted conditions. Absorption at OD600 of each well was recorded after 24 h of incubation. The OD600 of each strain grown in the absence of antibiotics was defined as 100% growth which was applied to normalise the reading collected from other wells. The normalised percentage of each well was plotted […]
(1 picture or pasted object on this page, not shown here)

[4] = molecular target: T1, HusA; experiment: UV-visible absorption spectral analysis of ligand interaction with HusA; type: binding
Experimental: All absorbance spectra were recorded at room temperature using 10-mm quartz cuvettes on a Shimadzu UV-1601 or Jasco V-630 spectrophotometer. Mixtures of HusA/mutant with porphyrins were prepared by dissolving porphyrin stocks in standard buffer to a final concentration of 5–20 μM with a 1–1.5 molar ratio of protein to porphyrin, as specified in the relevant figure legends. PPIX:HusA mixtures were prepared by incremental addition of 2–4 μM HusA with a 10–15 min wait after each addition of HusA.

[5] = test system: P. gingivalis W83; experiment: Growth of starved W83 with titration of dipyridyl; type: cell-based, Porphyromonas gingivalis
Text: This manuscript further describes HusA protein. Although very sophisticated methods were used and interesting results were gained, this study requires more work to be convincing. The conclusions drawn (mainly regarding the possibility that porphyrin-metronidazole conjugate could be used to treat P. gingivalis infection) are very strong but not supported enough by the data presented.
- How is this possible that P. gingivalis grows in the culture medium lacking iron (dipyridyl added) and supplemented with porphyrins without metal inside the porphyrin ring (Fig 1, panel A)? What serves as an iron source allowing P. gingivalis to grow? Were the bacteria starved before these experiments? Please explain this more carefully.
Response: We agree with the reviewer that P. gingivalis requires both iron and porphyrin to survive. Iron is naturally present in the complex medium, enriched tryptic soy broth (eTSB), used in this study. The iron concentration of TSB medium has been previously determined at 0.74 µg/mL by atomic absorption spectrophotometry (de Oliverira Moreira L., et al., 2003 AEM) which requires approximately 500 µM dipyridyl to chelate all available iron in the medium (Scharfman AH 1996 I&I). The dipyridyl used in this study is 100 µM and the remaining iron provided by the TSB medium is sufficient to support P. gingivalis growth. […]

CC1=Cc2cc3[n-]c(cc4[n-]c(cc5nc(cc1n2)C=C5C)c(C)c4CCC(=O)[O-])c(CCC(=O)[O-])c3C.[Fe+2].[H+].[H+] [Fe(III)DPIX, iron(III) deuteroporphyrin IX]
Kd [1]: 220 ± 50 nM

Cc1ncc([N+](=O)[O-])n1CCO [Metronidazole, metronidazole]
MIC [2]: 5 to 10 µM

C=CC1=C(C)c2cc3[nH]c(cc4nc(cc5[nH]c(cc1n2)c(C)c5CCC(=O)O)C(CCC(=O)O)=C4C)c(C)c3C=C [PPIX, protoporphyrin-IX]
sensitisation of P. gingivalis cells towards metronidazole [3]: Neither PPIX nor DPIX sensitised | Kd [1]: 1900 ± 600 nM

C=CC1=C(C)/C(=C/c2[nH]c(Cc3[nH]c(/C=C4\NC(=O)C(C)=C4C=C)c(C)c3CCC(=O)O)c(CCC(=O)O)c2C)NC1=O [bilirubin]
interaction with HusA by UV-visible absorption [4]: no interaction

C=CC1=C(C)/C(=C/C2=NC(=C\c3[nH]c(/C=C4\NC(=O)C(C)=C4C=C)c(C)c3CCC(=O)O)/C(CCC(=O)O)=C2C)NC1=O [biliverdin]
interaction with HusA by UV-visible absorption [4]: no interaction

c1ccc(-c2ccccn2)nc1 [dipyridyl, 2,2’-dipyridyl]
dipyridyl concentration at which growth recovery after starvation was observed [5]: up to 200 µM | dipyridyl concentration at which P. gingivalis failed to recover ([5]; W83 after starvation): ≥ 500 µM
